Measured values from patent US20100189695A1, “IRAK-1 AS REGULATOR OF DISEASES AND DISORDERS” (priority 2008, published 2010).
No end group written: not given here.

How the values were obtained:
PGC1α = PGC1α protein after LPS, Western blot; type: cell-based; details: LPS vs Control
Description: The ability of IRAK-1 to regulate the transcription factor PGC1α was determined in this set of experiments. PGC1α was detected by Western blot analysis in either wild type or IRAK-1 deficient cells in the presence or absence of LPS (FIG. 15).

LXRα = LXRα protein after LPS, Western blot; type: cell-based
Excerpt: The transcriptional factor LXRα was also thought to be a potential target of IRAK-1 suppression. FIG. 14 illustrates Western blot analysis of the LXRα protein in the presence and absence of IRAK-1. Suppression of LXRα can be seen in the wild type cells (lanes 1 and 2).

MCP-1 = MCP-1 message and protein after LPS in macrophages, real-time PCR and ELISA; type: cell-based; details: wild-type cells, LPS stimulation
Description: To investigate the possible role of IRAK-1 in control of MCP-1 expression, experiments were performed to assess the level of MCP-1 produced via LPS stimulation. It was postulated that IRAK-1 regulates the expression of MCP-1 through interaction of IRAK-1 with C/EBPδ. To assess this possible interaction, MCP-1 mRNA levels were determined in both wild-type cells and IRAK^−/− cells in the presence and absence of LPS. The results are depicted graphically in FIG. 17.
As shown in the figure, the levels of MCP-1 message (left panel) and protein (right panel) in wild type and IRAK-1 deficient macrophages following LPS stimulation was measured by real-time PCR analyses (left panel) and ELISA (right panel). […] The data fully support a role for IRAK-1 in control of expression of MCP-1 transcription through control of C/EBPδ.

BMDM cells = experiment: Intracellular ROS by DCFDA staining after LPS stimulation; type: cell-based, mouse; details: wild type macrophages, LPS 100 ng/ml, 15 minutes or 16 hours
Description: (§1) To determine if IRAK-1 is required for LPS-induced activation of Rac1, either wild type or IRAK-1 deficient macrophages were treated with LPS (100 ng/ml).
Intracellular ROS levels were measured by DCFDA staining using fluorescence microscope after LPS (100 ng/ml) stimulation in WT and IRAK1^−/− BMDM cells for 15 min.

PPARα = PPARα protein after LPS, Western blot; type: cell-based; details: IRAK-1 deficient cells, LPS vs Control
Excerpt: It was of interest to determine if the transcription factor PPARα is also regulated by IRAK-1.

C/EBPδ = experiment: LPS-induced C/EBPδ expression, Western blot in macrophages; type: cell-based; details: LPS two hours
Description: To determine if IRAK-1 is involved in LPS-induced C/EBPδ expression, either wild type or IRAK-1 deficient macrophages were treated with LPS for two hours. […] Either β-actin or lamin-B proteins were used as controls.

Rac1 = Rac1 activity by PBD pull down assay after LPS stimulation; type: cell-based, mouse; details: LPS 100 ng/ml, 5 min
Description: as §1
Rac1 activity was determined using the PBD pull down assay following LPS stimulation (100 ng/ml) for 5 min in WT and IRAK1^−/− BMDM cells followed by immunoblotting with an anti-Rac1 antibody. […] The bar graphs are densitometric analyses of the active Rac1 specific bands from three independent experiments.

NOX-1 = NOX-1 expression after LPS in BMDM cells; type: cell-based, mouse
Description: To determine if IRAK-1 was involved in the regulation of inflammatory mediator NOX-1, the levels of NOX-1 were determined in wild type and IRAK-1 deficient macrophages in the presence and absence of LPS (FIG. 16).
Panel A: Effect of LPS on NOX-1 expression in WT and IRAK1^−/− BMDM cells. The cells were stimulated with LPS (100 ng/ml) for 2 h. After stimulation, total RNA was prepared using Trizol reagent followed by reverse transcription and the mRNA levels of NOX-1 were analyzed using real-time RT-PCR. Each data point represents the mean+/−standard deviation of at least three independent experiments. *P<0.05, compared with control. Panel B: The protein levels of NOX-1 were analyzed after LPS stimulation in WT and IRAK1^−/− BMDM cells by Western blot using an anti-NOX-1 antibody. The same blots were probed with β-actin as the loading control. Panel C: Chromatin immunoprecipitation analyses were performed to determine LPS-inducible recruitment of C/EBPδ to the promoter region of NOX-1. In contrast, LPS cannot induce C/EBPδ binding to the promoter region of NOX-1 in IRAK-1 deficient macrophages.

RARα = RARα levels in BMDMs after LPS, Western blot and real time RT-PCR; type: cell-based, mouse; details: for nuclear RARα protein level: 100 ng/ml LPS
Description: To determine if IRAK-1 is involved in the nuclear translocation of RARα, the levels of RARα were determined in wild type and IRAK-1 deficient macrophages in the presence and absence of LPS (FIG. 9). […] When experiments are performed in a IRAK-1 deficient background, RARα is not suppressed (lanes 5-8). As expected, when a wild type background is used, IRAK-1 suppression can be seen (lanes 1 and 2).
WT and IRAK-1^−/−. BMDMs were treated with 100 ng/ml LPS for 2 h followed by nuclear protein extraction. The samples were analyzed by immunoblotting using the indicated antibodies. LaminB was used as the loading control. Panel B: the BMDMs derived from WT and IRAK-1^−/− mice were treated with LPS for 2 h followed by RNA extraction. The resulting cDNAs were used to detect RARα transcript levels by real time RT-PCR and standardized against GAPDH levels. Panel C: WT BMDMs were treated with 100 ng/ml LPS for 2 h followed by whole cell protein extraction. The samples were resolved by SDS-PAGE followed by immunoblotting with anti-RARα antibodies. Panel D: BMDM cells derived from WT mice were either untreated or treated with Leptomycin B (LepB) alone or in the presence of LPS. After 2 h incubation, nuclear lysates were prepared and subjected to SDS-PAGE followed by Western blot analysis with RARα specific antibodies. The blots were also probed with LaminB-specific antibodies as a loading control. ns=non-specific.

Tau = Tau phosphorylation (PHF-Tau) after BLP (Pam3CSK4) in bone marrow derived macrophages, Western blot; type: cell-based, mouse
Description: Because Tau phosphorylation is increased in aged human brains and contributes to the pathogenesis of various neurological diseases, such as Alzheimer's and Parkinson's diseases, studies were performed to ask whether the increased levels of full-length IRAK-1 can contribute to Tau phosphorylation. In order to answer this question, a transgenic mouse model known in the art was used. According to this study, either wild type or IRAK-1 deficient bone marrow derived macrophages were treated with BLP (Pam3CSK4) for various times, as indicated in FIGS. 4 and 5. The levels of phosphorylated Tau (PHF-Tau) were detected through Western Blot using anti-phosphorylated Tau antibody.

ABCA1 = ABCA1 induction by ATRA in BMDMs, real time RT-PCR; type: cell-based, mouse; details: IRAK1−/− vs WT BMDMs, 50 nM ATRA, 6 h
Description: WT and IRAK1^−/− BMDM cells were either untreated or treated with ATRA (50 nM) followed by Western blot analysis of cell extracts using ABCA1 specific antibodies. Antibodies against β-actin were used as the internal loading control. Panel B: the band intensities were quantitated using the Fujifilm Multi Gauge software and the fold induction is depicted after normalization against β-actin levels. Panel C: IRAK-1 expression was knocked-down using IRAK-1 specific siRNA (IRAK1). Wild type macrophages treated with either control siRNA or IRAK-1 specific siRNA were stimulated with 50 nM ATRA for 6 hrs. The levels of ABCA1 protein were determined by Western blot using anti-ABCA1 antibody. The levels of beta-actin were probed and served as equal loading controls. The levels of IRAK-1 were probed to make efficient knock-down with the IRAK-1 specific siRNA treatment. […] The cells were […] either untreated or treated with 50 nM ATRA for 6 h and the expression of ABCA1 and ABCG1 transcripts were measured by real time RT-PCR assays and standardized against GAPDH levels.

For lipopolysaccharide [LPS], the PGC1α protein (PGC1α; IRAK-1 deficient cells) was “did not show the LPS-induced suppression”, the PGC1α protein (PGC1α; wild type cells) was “much less of the PGC1α protein” and the “amount of LXRα in the presence or absence of LPS” value (LXRα; IRAK-1 deficient cells) was “approximately the same”. The “amount of LXRα without LPS induction relative to LPS-induced cells” value (LXRα; wild type cells) was “four times”, the “MCP-1 transcription and protein expression” value (MCP-1) was “significant increase in induction of MCP-1 transcription and protein expression” and the “reactive oxygen species levels” value (BMDM cells) was “induced significantly higher levels of reactive oxygen species”. For the same compound, the PPARα protein (PPARα) was “PPARα was seen in both the Control and LPS samples”, the C/EBPδ expression (C/EBPδ; IRAK-1 deficient macrophages) was “no induction” and the C/EBPδ expression (C/EBPδ; wild type macrophages) was “induction”. For the same compound, the “activation of Rac1” value (Rac1; IRAK-1 deficient macrophages) was “No induction was seen”, the “relative Rac1 activity” value (Rac1; wild type macrophages) was “significantly higher” and the NOX-1 protein (NOX-1; IRAK-1 deficient cells) was “Induction was seen to a lesser extent”. The NOX-1 protein (NOX-1; wild type macrophage cells) was “LPS-induction of NOX-1”, the “nuclear RARα protein level” value (RARα; IRAK-1 deficient BMDMs, 2 h) was “no significant suppression” and the “nuclear RARα protein level” value (RARα; wild type BMDMs, 2 h) was “suppression of RARα protein”. For the same compound, the “RARα relative transcript levels” value (RARα; wild type and IRAK-1 deficient BMDMs, LPS 2 h, standardized against GAPDH) was “approximately equal”.

With “Triacylated Cys-Ser-Lys-Lys-Lys-Lys (CSKKKK; not fully specified (residue 1, N-terminus); printed as Triacylated Cys-Ser-Lys-Lys-Lys-Lys) [Pam3CSK4]” the Tau phosphorylation (Tau; IRAK-1 deficient bone marrow derived macrophages) was “Tau phosphorylation is ablated” and the Tau phosphorylation (Tau; wild type bone marrow derived macrophages) was “led to increased Tau phosphorylation”.

With `CC1=C(/C=C/C(C)=C/C=C/C(C)=C/C(=O)O)C(C)(C)CCC1` [ATRA, all trans retinoic acid] the “ABCA1 mRNA induction” value (ABCA1) was “higher induction of ABCA1 mRNA”.

`CCC(=C/[C@H](C)C/C=C/C(C)=C/[C@@H](C)C(=O)[C@@H](C)[C@H](O)[C@@H](C)C/C(C)=C/C(=O)O)/C=C/[C@@H]1OC(=O)C=C[C@@H]1C` [LepB, Leptomycin B] was tested, and the “LPS-induced suppression of nuclear RARα in the presence of LepB” value (RARα; wild type BMDM, LepB with LPS, 2 h) was “RARα suppression by IRAK-1 is not seen”.
